According to patent US20230032473A1, “NAD(H) NANOPARTICLES AND METHODS OF USE” (Wisconsin Alumni Research Foundation, priority 2021, published 2023):

Key:
[1] = system: LPS-stimulated BMDM; test: Pro-inflammatory cytokine levels by ELISA in LPS-stimulated BMDM; assay type: cell-based, murine; conditions: LPS 100 ng/mL, 10 μM NAD(H) equivalent, 12 h
Description: Measurement of inflammation related cytokine levels. […] Twelve hours after the treatment, the cell culture media were collected to analyze the cytokine production by ELISA kits supplied by R&D Systems according to the manufacturer's instructions. Data were collected by monitoring the difference between the absorbance at 450 nm and 570 nm using the Microplate Reader.

[2] = system: CLP-induced sepsis with P. aeruginosa secondary infection; test: Cecal ligation and puncture (CLP) and P. aeruginosa secondary infection model; assay type: in vivo, mice
Description: Cecal ligation and puncture (CLP) and P. aeruginosa secondary infection model. Mice were anesthetized with isoflurane. Thereafter, the abdominal cavity was opened with a midline incision to expose the cecum. The distal 50% of the cecum was ligated with a 6-0 silk suture and perforated with a 19-gauge needle twice. Subsequently, a small amount of feces was squeezed out and spread around the cecum. The cecum was relocated into the peritoneal cavity, and the laparotomy site was closed, followed by subcutaneous injection of 1 mL resuscitative prewarmed sterile saline (Dawulieti, J. et al. Treatment of severe sepsis with nanoparticulate cell-free DNA scavengers. Science advances 6, eaay7148 (2020)). This level of injury was utilized to create a prolonged infection that impaired immune system and induced approximate 30% mortality. Two injections of free NAD^+ (20 mg/kg per injection), LP-CaP, or NAD^+-LP-CaP (an equivalent dose of NAD^+20 mg/kg per injection) were given through tail vein 6 h and 24 h after the surgery. […] Mice survival and body weight were recorded over time and presented using Kaplan—Meier curves (n=14). […] The CLP mice were monitored twice daily and their conditions were evaluated using a sepsis scoring sheet. […]

Row | SMILES | production of IL-6 [1] | production of TNF-α [1] | survival rate [2]
1 | NC(=O)C1=CN([C@@H]2O[C@H](COP(=O)([O-])OP(=O)([O-])OC[C@H]3O[C@@H](n4cnc5c(N)ncnc54)[C@H](O)[C@@H]3O)[C@@H](O)[C@H]2O)C=CC1.[Na+].[Na+] [NADH, β-Nicotinamide adenine dinucleotide, reduced disodium salt] | did not affect | did not affect | –
2 | NC(=O)C1=CN([C@@H]2O[C@H](COP(=O)(O)OP(=O)(O)OC[C@H]3O[C@@H](n4cnc5c(N)ncnc54)[C@H](O)[C@@H]3O)[C@@H](O)[C@H]2O)C=CC1 [free NAD^+, β-Nicotinamide adenine dinucleotide] | did not affect | did not affect | did not improve the survival rate
